{
  "source": "patent US20050244328A1",
  "about": "(priority 2002, published 2005)",
  "key": {"Mysid shrimp": {"test_system": "Mysid shrimp", "assay": "In-house mysid shrimp acute bioassay of treated effluent", "conditions": "for surviving Mysid shrimp DAY 1 (bowls A, B) / surviving Mysid shrimp DAY 2 (bowls A, B) / surviving Mysid shrimp DAY 3 (bowls A, B) / surviving Mysid shrimp DAY 4 (bowls A, B): 10 initial per bowl, set up Aug. 20, 2002"}, "M. bahia": {"test_system": "M. bahia", "assay": "Bioassay of ClO2 treated WWTP 2 effluent by Laboratory 4, mysid shrimp", "assay_type": "in vivo, Mysidopsis bahia", "conditions": "grabs Aug. 28, 2002 10:15, 16:00, 22:00, Aug. 29, 2002 09:30", "excerpt": "With the success of the above bioassay series that began on Aug. 20, 2002, it was concluded that a third party test was needed to verify research data. Water grabs from the Anastasia Island Treatment Facility, taken on Aug. 28, 2002, were delivered to Laboratory 4, an independent bioassay laboratory. Additional testing of the water sent to Laboratory 4 labs was also forwarded to another contract lab to document the water quality during the sample periods for the bioassays. It should be noted here that the plant was operating under their normal operating conditions and accepting both landfill leachate as well as septic tank and portable toilet waste. These were however pumped into a storage tank and then trickled into the influent stream at the headworks.\nThe complete toxicological study as reference is included as attachment at the end of this study.\nWith the successful bioassay conducted by the Laboratory 4 labs, a second series of water samples was taken for the repeat bioassay. These samples were taken on Sep. 11, 2002 and forwarded to Laboratory 4 labs on Sep. 12, 2002 to conduct the bioassay. The results of this test for both the water quality toxicity and the bioassay are illustrated in the Tables 13, 14 and 15.\nThe complete toxicological results are provided at the end of this study as attachments."}, "Streptococcus": {"test_system": "Streptococcus", "conditions": "1 ppm of ClO2; contact time 15 s; cited from earlier work"}},
  "note": "Where “and” joins values, the source holds several entries; their conditions need not be identical. Equal values may be shown once.",
  "data": [
    {"substance": "Chlorine dioxide [ClO2]", "values": [
      {"measurement": "surviving Mysid shrimp DAY 1 (bowls A, B)", "setting": "Mysid shrimp; 0.64 PPM DOSE, 75% solution", "value": 10},
      {"measurement": "surviving Mysid shrimp DAY 2 (bowls A, B)", "setting": "Mysid shrimp; 0.64 PPM DOSE, 75% solution", "value": 10},
      {"measurement": "surviving Mysid shrimp DAY 3 (bowls A, B)", "setting": "Mysid shrimp; 0.64 PPM DOSE, 75% solution", "value": "9 and 10"},
      {"measurement": "surviving Mysid shrimp DAY 4 (bowls A, B)", "setting": "Mysid shrimp; 0.64 PPM DOSE, 75% solution", "value": "8 and 10"},
      {"measurement": "survival rate of Mysid Shrimp 24 HR", "setting": "Mysid shrimp; 0.64 PPM DOSE, 100% solution", "value": 100},
      {"measurement": "survival rate of Mysid Shrimp 48 HR", "setting": "Mysid shrimp; 0.64 PPM DOSE, 100% solution", "value": 100},
      {"measurement": "survival rate of Mysid Shrimp 72 HR", "setting": "Mysid shrimp; 0.64 PPM DOSE, 100% solution", "value": 85},
      {"measurement": "survival rate of Mysid Shrimp 96 HR", "setting": "Mysid shrimp; 0.64 PPM DOSE, 100% solution", "value": 70},
      {"measurement": "surviving Mysid shrimp DAY 1 (bowls A, B)", "setting": "Mysid shrimp; 0.64 PPM DOSE, 100% solution", "value": 10},
      {"measurement": "surviving Mysid shrimp DAY 2 (bowls A, B)", "setting": "Mysid shrimp; 0.64 PPM DOSE, 100% solution", "value": 10},
      {"measurement": "surviving Mysid shrimp DAY 3 (bowls A, B)", "setting": "Mysid shrimp; 0.64 PPM DOSE, 100% solution", "value": "7 and 10"},
      {"measurement": "surviving Mysid shrimp DAY 4 (bowls A, B)", "setting": "Mysid shrimp; 0.64 PPM DOSE, 100% solution", "value": "5 and 9"},
      {"measurement": "survival rate of Mysid Shrimp 24 HR", "setting": "Mysid shrimp; 1.05 PPM DOSE, 25% solution", "value": 100},
      {"measurement": "survival rate of Mysid Shrimp 48 HR", "setting": "Mysid shrimp; 1.05 PPM DOSE, 25% solution", "value": 100},
      {"measurement": "survival rate of Mysid Shrimp 72 HR", "setting": "Mysid shrimp; 1.05 PPM DOSE, 25% solution", "value": 100},
      {"measurement": "survival rate of Mysid Shrimp 96 HR", "setting": "Mysid shrimp; 1.05 PPM DOSE, 25% solution", "value": 100},
      {"measurement": "surviving Mysid shrimp DAY 1 (bowls A, B)", "setting": "Mysid shrimp; 1.05 PPM DOSE, 25% solution", "value": 10},
      {"measurement": "surviving Mysid shrimp DAY 2 (bowls A, B)", "setting": "Mysid shrimp; 1.05 PPM DOSE, 25% solution", "value": 10},
      {"measurement": "surviving Mysid shrimp DAY 3 (bowls A, B)", "setting": "Mysid shrimp; 1.05 PPM DOSE, 25% solution", "value": 10},
      {"measurement": "surviving Mysid shrimp DAY 4 (bowls A, B)", "setting": "Mysid shrimp; 1.05 PPM DOSE, 25% solution", "value": 10},
      {"measurement": "survival rate of Mysid Shrimp 24 HR", "setting": "Mysid shrimp; 1.05 PPM DOSE, 50% solution", "value": 100},
      {"measurement": "survival rate of Mysid Shrimp 48 HR", "setting": "Mysid shrimp; 1.05 PPM DOSE, 50% solution", "value": 100},
      {"measurement": "survival rate of Mysid Shrimp 72 HR", "setting": "Mysid shrimp; 1.05 PPM DOSE, 50% solution", "value": 95},
      {"measurement": "survival rate of Mysid Shrimp 96 HR", "setting": "Mysid shrimp; 1.05 PPM DOSE, 50% solution", "value": 95},
      {"measurement": "surviving Mysid shrimp DAY 1 (bowls A, B)", "setting": "Mysid shrimp; 1.05 PPM DOSE, 50% solution", "value": 10},
      {"measurement": "surviving Mysid shrimp DAY 2 (bowls A, B)", "setting": "Mysid shrimp; 1.05 PPM DOSE, 50% solution", "value": 10},
      {"measurement": "surviving Mysid shrimp DAY 3 (bowls A, B)", "setting": "Mysid shrimp; 1.05 PPM DOSE, 50% solution", "value": "10 and 9"},
      {"measurement": "surviving Mysid shrimp DAY 4 (bowls A, B)", "setting": "Mysid shrimp; 1.05 PPM DOSE, 50% solution", "value": "9 and 10"},
      {"measurement": "survival rate of Mysid Shrimp 24 HR", "setting": "Mysid shrimp; 1.05 PPM DOSE, 75% solution", "value": 100},
      {"measurement": "survival rate of Mysid Shrimp 48 HR", "setting": "Mysid shrimp; 1.05 PPM DOSE, 75% solution", "value": 100},
      {"measurement": "survival rate of Mysid Shrimp 72 HR", "setting": "Mysid shrimp; 1.05 PPM DOSE, 75% solution", "value": 100},
      {"measurement": "survival rate of Mysid Shrimp 96 HR", "setting": "Mysid shrimp; 1.05 PPM DOSE, 75% solution", "value": 95},
      {"measurement": "surviving Mysid shrimp DAY 1 (bowls A, B)", "setting": "Mysid shrimp; 1.05 PPM DOSE, 75% solution", "value": 10},
      {"measurement": "surviving Mysid shrimp DAY 2 (bowls A, B)", "setting": "Mysid shrimp; 1.05 PPM DOSE, 75% solution", "value": 10},
      {"measurement": "surviving Mysid shrimp DAY 3 (bowls A, B)", "setting": "Mysid shrimp; 1.05 PPM DOSE, 75% solution", "value": 10},
      {"measurement": "surviving Mysid shrimp DAY 4 (bowls A, B)", "setting": "Mysid shrimp; 1.05 PPM DOSE, 75% solution", "value": "10 and 9"},
      {"measurement": "survival rate of Mysid Shrimp 24 HR", "setting": "Mysid shrimp; 1.05 PPM DOSE, 100% solution", "value": 100},
      {"measurement": "survival rate of Mysid Shrimp 48 HR", "setting": "Mysid shrimp; 1.05 PPM DOSE, 100% solution", "value": 100},
      {"measurement": "survival rate of Mysid Shrimp 72 HR", "setting": "Mysid shrimp; 1.05 PPM DOSE, 100% solution", "value": 90},
      {"measurement": "survival rate of Mysid Shrimp 96 HR", "setting": "Mysid shrimp; 1.05 PPM DOSE, 100% solution", "value": 70},
      {"measurement": "surviving Mysid shrimp DAY 1 (bowls A, B)", "setting": "Mysid shrimp; 1.05 PPM DOSE, 100% solution", "value": 10},
      {"measurement": "surviving Mysid shrimp DAY 2 (bowls A, B)", "setting": "Mysid shrimp; 1.05 PPM DOSE, 100% solution", "value": "10 and 9"},
      {"measurement": "surviving Mysid shrimp DAY 3 (bowls A, B)", "setting": "Mysid shrimp; 1.05 PPM DOSE, 100% solution", "value": "8 and 10"},
      {"measurement": "surviving Mysid shrimp DAY 4 (bowls A, B)", "setting": "Mysid shrimp; 1.05 PPM DOSE, 100% solution", "value": "6 and 8"},
      {"measurement": "No. of surviving shrimp DAY 2", "setting": "Mysid shrimp; 100% effluent, 10 shrimp per bowl, set up Aug. 13, 2002, ClO2 samples 14:00 and 15:00, bowls A, B, landfill leachate slug in plant", "value": "10 and 9 and 6"},
      {"measurement": "AVG (% survival of bowls A and B)", "setting": "Mysid shrimp; 100% effluent, set up Aug. 13, 2002, ClO2 samples 14:00 and 15:00", "value": 40, "unit": "%"},
      {"measurement": "mysid shrimp bioassay outcome", "setting": "Mysid shrimp; side stream, after adjustments to the chlorine dioxide generator (weaker hypochlorite solution)", "value": "successful (acceptable end-point survival)"},
      {"measurement": "Sample survival % of M. bahia", "setting": "M. bahia; 6.25 % Effluent", "value": 100, "unit": "%"},
      {"measurement": "Sample survival % of M. bahia", "setting": "M. bahia; 12.5 % Effluent", "value": "95% and 100%"},
      {"measurement": "Sample survival % of M. bahia", "setting": "M. bahia; 25 % Effluent", "value": 100, "unit": "%"},
      {"measurement": "Sample survival % of M. bahia", "setting": "M. bahia; 50 % Effluent", "value": "95% and 100%"},
      {"measurement": "Sample survival % of M. bahia", "setting": "M. bahia; 100 % Effluent", "value": 100, "unit": "%"},
      {"measurement": "Inactivation in %", "setting": "Streptococcus", "value": ">99.999", "unit": "%"}
    ]}
  ]
}
